Biological target: aryl hydrocarbon receptor (AhR) (Homo sapiens, UniProt P35869)
Test: EROD induction in Caco-2 cells (endogenous AhR), abolished by AhR antagonist
Type: cell-based

Question: `Clc1cc2c(cc1Cl)Oc1cc(Cl)c(Cl)cc1O2` [2,3,7,8-TCDD, 2,3,7,8-tetrachlorodibenzo-p-dioxin] was tested. Which EC50 did it give?
Answer: The EC50 was 0.102 nM.
